Laboratory results published in US8030498B2, “Benzoylpyrazole compounds and herbicides containing them” (Ishihara Sangyo Kaisha, Ltd., priority 2005, dated 2011).

Legend:
[1] = tested on: barnyardgrass (Echinochloa crus-galli L.); assay: Test Example 1: foliar treatment, growth inhibition rate, barnyardgrass; assay type: in vivo; conditions: visually observed 17th to 23rd day after application
Text: (§1) Upland field soil was put into a 1/170,000 hectare pot, and seeds of various plants were sown. When the respective plants reached predetermined leaf stage ((1) barnyardgrass (Echinochloa crus-galli L.); 0.8 to 2.5 leaf stage, (2) crabgrass (Digitaria sanguinalis L.): 0.5 to 3.0 leaf stage, (3) greenfoxtail (Setaria viridis L.): 1.0 to 3.0 leaf stage, (4) redroot pigweed (Amaranthus retroflexus L.): cotyledon stage to 2.0 leaf stage, (5) prickly sida (Sida spinosa L.): cotyledon stage to 1.1 leaf stage, (6) velvetleaf (Abutilon theophrasti MEDIC.): cotyledon stage to 1.5 leaf stage, (7) rice (Oryza sativa L.): 1.0 to 2.5 leaf stage, (8) wheat (Triticum spp.): 1.7 to 3.4 leaf stage, (9) corn (Zea mays L.): 2.0 to 3.5 leaf stage, and (10) soybean (Glycine max Merr.): primary leaf stage to 0.3 leaf stage), wettable powders or emulsifiable concentrates of the compounds of the present invention prepared in accordance with a conventional preparation method, were weighed so that the active ingredients became the prescribed amounts, and diluted with water in an amount corresponding to 500 liter per 1 hectare. 0.1 vol % of an agricultural spreader was further added to the respective diluted liquids, followed by foliar treatment with a small sprayer.
(§2) On the 17th to 23rd day after application, the state of growth of the respective plants was visually observed, and the herbicidal effect was evaluated in accordance with a growth inhibition rate (%) of 0 (equivalent to the non-treated area) to 100% (complete kill).

[2] = tested on: velvetleaf (Abutilon theophrasti MEDIC.); assay: Test Example 1: foliar treatment, growth inhibition rate, velvetleaf; assay type: in vivo; conditions: visually observed 17th to 23rd day after application
Text: as §1, §2

[3] = tested on: corn; assay: Test Example 2: soil application on the day after sowing, growth inhibition rate, corn; assay type: in vivo, Zea mays L.; conditions: 250 g/ha active ingredient, observed on 19th to 24th day
Text: (§3) Upland field soil was put into a 1/170,000 hectare pot, and seeds of various plants (barnyardgrass, crabgrass, greenfoxtail, redroot pigweed, prickly sida, velvetleaf, rice, wheat, corn and soybean) were sown. On the day after sowing, wettable powders or emulsifiable concentrates of the compounds of the present invention prepared in accordance with a conventional preparation method, were weighed so that the active ingredients became the prescribed amounts, and diluted with water in an amount corresponding to 500 liter per 1 hectare, followed by soil application with a small sprayer. On the 19th to 24th day after the application, the state of growth of the respective plants was visually observed, and the herbicidal effect was evaluated in accordance with a growth inhibition rate (%) of from 0 (equivalent to the non-treated area) to 100% (complete kill).

[4] = tested on: barnyardgrass; assay: Test Example 2: soil application on the day after sowing, growth inhibition rate, barnyardgrass; assay type: in vivo, Echinochloa crus-galli L.; conditions: 250 g/ha active ingredient, observed on 19th to 24th day
Text: as §3

[5] = tested on: crabgrass; assay: Test Example 2: soil application on the day after sowing, growth inhibition rate, crabgrass; assay type: in vivo, Digitaria sanguinalis L.; conditions: 250 g/ha active ingredient, observed on 19th to 24th day
Text: as §3

[6] = tested on: rice (Oryza sativa L.); assay: Test Example 1: foliar treatment, growth inhibition rate, rice; assay type: in vivo; conditions: visually observed 17th to 23rd day after application
Text: as §1, §2

[7] = tested on: rice; assay: Test Example 2: soil application on the day after sowing, growth inhibition rate, rice; assay type: in vivo, Oryza sativa L.; conditions: 250 g/ha active ingredient, observed on 19th to 24th day
Text: as §3

[8] = tested on: greenfoxtail (Setaria viridis L.); assay: Test Example 1: foliar treatment, growth inhibition rate, greenfoxtail; assay type: in vivo; conditions: visually observed 17th to 23rd day after application
Text: as §1, §2

[9] = tested on: prickly sida; assay: Test Example 2: soil application on the day after sowing, growth inhibition rate, prickly sida; assay type: in vivo, Sida spinosa L.; conditions: 250 g/ha active ingredient, observed on 19th to 24th day
Text: as §3

[10] = tested on: crabgrass (Digitaria sanguinalis L.); assay: Test Example 1: foliar treatment, growth inhibition rate, crabgrass; assay type: in vivo; conditions: visually observed 17th to 23rd day after application
Text: as §1, §2

[11] = tested on: prickly sida (Sida spinosa L.); assay: Test Example 1: foliar treatment, growth inhibition rate, prickly sida; assay type: in vivo; conditions: visually observed 17th to 23rd day after application
Text: as §1, §2

[12] = tested on: greenfoxtail; assay: Test Example 2: soil application on the day after sowing, growth inhibition rate, greenfoxtail; assay type: in vivo, Setaria viridis L.; conditions: 250 g/ha active ingredient, observed on 19th to 24th day
Text: as §3

[13] = tested on: velvetleaf; assay: Test Example 2: soil application on the day after sowing, growth inhibition rate, velvetleaf; assay type: in vivo, Abutilon theophrasti MEDIC.; conditions: 250 g/ha active ingredient, observed on 19th to 24th day
Text: as §3

[14] = tested on: soybean; assay: Test Example 2: soil application on the day after sowing, growth inhibition rate, soybean; assay type: in vivo, Glycine max Merr.; conditions: 250 g/ha active ingredient, observed on 19th to 24th day
Text: as §3

[15] = tested on: corn (Zea mays L.); assay: Test Example 1: foliar treatment, growth inhibition rate, corn; assay type: in vivo; conditions: visually observed 17th to 23rd day after application
Text: as §1, §2

[16] = tested on: soybean (Glycine max Merr.); assay: Test Example 1: foliar treatment, growth inhibition rate, soybean; assay type: in vivo; conditions: visually observed 17th to 23rd day after application
Text: as §1, §2

[17] = tested on: redroot pigweed; assay: Test Example 2: soil application on the day after sowing, growth inhibition rate, redroot pigweed; assay type: in vivo, Amaranthus retroflexus L.; conditions: 250 g/ha active ingredient, observed on 19th to 24th day
Text: as §3

[18] = tested on: wheat (Triticum spp.); assay: Test Example 1: foliar treatment, growth inhibition rate, wheat; assay type: in vivo; conditions: visually observed 17th to 23rd day after application
Text: as §1, §2

[19] = tested on: redroot pigweed (Amaranthus retroflexus L.); assay: Test Example 1: foliar treatment, growth inhibition rate, redroot pigweed; assay type: in vivo; conditions: visually observed 17th to 23rd day after application
Text: as §1, §2

SMILES | Growth inhibition rate (%) Barnyardgrass ([1]; 31 g/ha active ingredient) [%] | Growth inhibition rate (%) Velvetleaf ([2]; 31 g/ha active ingredient) [%] | Growth inhibition rate (%) Corn [3] [%] | Growth inhibition rate (%) Barnyardgrass [4] [%] | Growth inhibition rate (%) Crabgrass [5] [%] | Growth inhibition rate (%) Rice ([6]; 31 g/ha active ingredient) [%] | Growth inhibition rate (%) Rice [7] [%] | Growth inhibition rate (%) Greenfoxtail ([8]; 31 g/ha active ingredient) [%] | Growth inhibition rate (%) Prickly sida [9] [%] | Growth inhibition rate (%) Crabgrass ([10]; 31 g/ha active ingredient) [%] | Growth inhibition rate (%) Prickly sida ([11]; 31 g/ha active ingredient) [%] | Growth inhibition rate (%) Greenfoxtail [12] [%] | Growth inhibition rate (%) Velvetleaf [13] [%] | Growth inhibition rate (%) Soybean [14] [%] | Growth inhibition rate (%) Corn ([15]; 31 g/ha active ingredient) [%] | Growth inhibition rate (%) Soybean ([16]; 31 g/ha active ingredient) [%] | Growth inhibition rate (%) redroot pigweed [17] [%] | Growth inhibition rate (%) Wheat ([18]; 63 g/ha active ingredient) [%] | Growth inhibition rate (%) Barnyardgrass ([1]; 63 g/ha active ingredient) [%] | Growth inhibition rate (%) Wheat ([18]; 31 g/ha active ingredient) [%] | other results
CCSC(=O)Oc1c(C(=O)c2ccc(S(C)(=O)=O)c(OCC(C)OC)c2C)cnn1C (stereo not drawn) [compound 189] | 95 | 100 | 0 | 100 | 100 | 90 | 100 | 98 | 100 | 95 | 70 | 100 | 100 | 10 | 0 | 98 | 100 |  |  |  | 
CCSC(=O)Oc1c(C(=O)c2ccc(S(C)(=O)=O)c(S(C)(=O)=O)c2Cl)cnn1C [compound 224] |  |  | 10 | 100 | 100 |  | 98 |  | 75 |  |  | 98 | 70 | 50 |  |  | 100 | 0 | 95 |  | Growth inhibition rate (%) Velvetleaf ([2]; 63 g/ha active ingredient): 60%; Growth inhibition rate (%) Rice ([6]; 63 g/ha active ingredient): 20%; Growth inhibition rate (%) Greenfoxtail ([8]; 63 g/ha active ingredient): 70%; Growth inhibition rate (%) Crabgrass ([10]; 63 g/ha active ingredient): 60%; Growth inhibition rate (%) Prickly sida ([11]; 63 g/ha active ingredient): 70%; Growth inhibition rate (%) Corn ([15]; 63 g/ha active ingredient): 0%; Growth inhibition rate (%) Soybean ([16]; 63 g/ha active ingredient): 100%; Growth inhibition rate (%) redroot pigweed ([19]; 63 g/ha active ingredient): 95%
CCSC(=O)Oc1c(C(=O)c2ccc(S(C)(=O)=O)c(CSC#N)c2C)cnn1C [compound 231] |  |  | 0 | 70 | 60 |  | 0 |  | 0 |  |  | 0 | 0 | 0 |  |  | 50 | 0 | 100 |  | Growth inhibition rate (%) Velvetleaf ([2]; 63 g/ha active ingredient): 80%; Growth inhibition rate (%) Rice ([6]; 63 g/ha active ingredient): 50%; Growth inhibition rate (%) Greenfoxtail ([8]; 63 g/ha active ingredient): 40%; Growth inhibition rate (%) Crabgrass ([10]; 63 g/ha active ingredient): 70%; Growth inhibition rate (%) Prickly sida ([11]; 63 g/ha active ingredient): 40%; Growth inhibition rate (%) Corn ([15]; 63 g/ha active ingredient): 0%; Growth inhibition rate (%) Soybean ([16]; 63 g/ha active ingredient): 100%; Growth inhibition rate (%) redroot pigweed ([19]; 63 g/ha active ingredient): 80%
COCCOc1c(S(C)(=O)=O)ccc(C(=O)c2cnn(C)c2OC(=O)SC)c1C [compound 233] | 100 | 100 | 0 | 100 | 100 | 80 | 100 | 100 | 40 | 100 | 60 | 100 | 100 | 50 | 0 | 100 | 100 |  |  | 0 | 
CCn1ncc(C(=O)c2ccc(S(C)(=O)=O)c(OCCOC)c2C)c1OC(=O)SC [compound 234] | 100 | 100 | 0 | 100 | 100 | 90 | 100 | 100 | 20 | 100 | 50 | 100 | 70 | 0 | 0 | 100 | 100 |  |  | 0 | Growth inhibition rate (%) redroot pigweed ([19]; 31 g/ha active ingredient): 100%
CCCSC(=O)Oc1c(C(=O)c2ccc(S(C)(=O)=O)c(OCCOC)c2C)cnn1CC [compound 235] | 100 | 100 | 0 | 100 | 100 | 90 | 100 | 100 | 98 | 100 | 50 | 100 | 20 | 0 | 30 | 100 | 100 |  |  | 40 | Growth inhibition rate (%) redroot pigweed ([19]; 31 g/ha active ingredient): 100%
